Data: patent publication US7781592B2, “Thione derivative, method for the preparation thereof, and pharmaceutical composition containing the same” (CJ Cheiljedang Corporation, priority 2003, dated 2010)

Assays:
COX-2 = molecular target: T1, COX-2 (Mus musculus, UniProt Q05769); test: Assay for the COX-2 inhibitory activity using Raw 264.7 cell line (PGE2 inhibition); type: cell-based; conditions: RAW264.7; test compound 30 nM; RAW 264.7 cells; aspirin pre-treated, interferon + LPS 18 hours; PGE2 by EIA; read-out: Cyclooxygenase (COX) Inhibition (%) COX-2 (30 nM)
T1 construct: host or cells: RAW 264.7 cells, pre-treated with aspirin, then induced with interferon and LPS
T1 sequence (Q05769 18-604): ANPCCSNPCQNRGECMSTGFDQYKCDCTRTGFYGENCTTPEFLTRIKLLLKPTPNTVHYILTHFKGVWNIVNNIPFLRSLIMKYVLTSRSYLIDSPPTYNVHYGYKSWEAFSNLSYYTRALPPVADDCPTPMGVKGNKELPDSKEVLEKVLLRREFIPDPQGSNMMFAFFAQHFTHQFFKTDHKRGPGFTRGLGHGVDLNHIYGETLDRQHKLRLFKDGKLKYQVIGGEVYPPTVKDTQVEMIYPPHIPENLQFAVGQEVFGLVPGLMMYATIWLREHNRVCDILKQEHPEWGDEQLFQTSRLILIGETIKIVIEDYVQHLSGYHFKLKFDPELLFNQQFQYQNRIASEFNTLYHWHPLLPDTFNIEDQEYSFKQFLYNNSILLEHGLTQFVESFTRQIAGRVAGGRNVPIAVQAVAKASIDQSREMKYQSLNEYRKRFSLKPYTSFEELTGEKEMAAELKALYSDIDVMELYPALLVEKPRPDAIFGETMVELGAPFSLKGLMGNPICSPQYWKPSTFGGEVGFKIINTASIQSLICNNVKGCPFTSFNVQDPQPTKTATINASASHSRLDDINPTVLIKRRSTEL
Description: Each well was treated with 250 μM of aspirin and incubated at 37° C. for 2 hours. After the culture media were replaced with new culture media, the new culture media were treated with a test compound (30 nM) and incubated for 30 minutes. Then, each well was treated with interferon ? (100 units/ml) and lipopolysaccharide (LPS, 100 ng/ml) and incubated for 18 hours. The culture media were transferred to other test tubes. The concentration of PGE2 was quantified by means of the EIA kit (Cayman Chemicals).
(§1) The percentages of the COX inhibition were calculated according to the following equation: % Inhibition=(concentration of PGE2 in test compound-untreated sample−concentration of PGE2 in test compound-treated sample)/(concentration of PGE2 in test compound-untreated sample)×100

COX-1 = molecular target: T2, COX-1 (Homo sapiens, UniProt P23219); test: Assay for the COX-1 inhibitory activity using U-937 (PGE2 inhibition); type: cell-based; conditions: test compound 1 μM; U-937 human lymphoma cells; arachidonic acid substrate; PGE2 quantified; read-out: Cyclooxygenase (COX) Inhibition (%) COX-1 (1 μM)
T2 construct: host or cells: U-937 human lymphoma cells
Description: The collected cells were diluted with HBSS (×1, Hank's balanced salt solution) to a concentration of 1×10^6 cells/ml. 1 ml of the dilute cell solution was placed into each well of 12-well plates. 5 μl of 1 μM solution of a test compound in DMSO and 5 μl of DMSO as a control were added to the wells. The wells were incubated in CO2 incubator at 37° C. for 15 minutes. Separately, 10 mM stock solution of arachidonic acid in ethanol was diluted ten times in ethanol to prepare 1 mM solution of arachidonic acid. Arachidonic acid acts as a substrate. 10 μl of the 1 mM solution of arachidonic acid was added to each well and incubated at CO2 incubator at 37° C. for 30 minutes. The cell solution of each well was placed in a centrifuge test tube and centrifuged at 10,000 rpm at 4° C. for 5 minutes. The concentration of PGE2 in the collected cells and the supernatant was quantified by means of a monoclonal kit (Cayman Chemicals). The percentages of PGE2 inhibition in a group of the test compound-treated cells in relation to a group of the DMSO-treated cells were calculated. Based on the calculated values, the COX-1 inhibitory activities were evaluated.
as §1

T2 sequence (P23219 24-599): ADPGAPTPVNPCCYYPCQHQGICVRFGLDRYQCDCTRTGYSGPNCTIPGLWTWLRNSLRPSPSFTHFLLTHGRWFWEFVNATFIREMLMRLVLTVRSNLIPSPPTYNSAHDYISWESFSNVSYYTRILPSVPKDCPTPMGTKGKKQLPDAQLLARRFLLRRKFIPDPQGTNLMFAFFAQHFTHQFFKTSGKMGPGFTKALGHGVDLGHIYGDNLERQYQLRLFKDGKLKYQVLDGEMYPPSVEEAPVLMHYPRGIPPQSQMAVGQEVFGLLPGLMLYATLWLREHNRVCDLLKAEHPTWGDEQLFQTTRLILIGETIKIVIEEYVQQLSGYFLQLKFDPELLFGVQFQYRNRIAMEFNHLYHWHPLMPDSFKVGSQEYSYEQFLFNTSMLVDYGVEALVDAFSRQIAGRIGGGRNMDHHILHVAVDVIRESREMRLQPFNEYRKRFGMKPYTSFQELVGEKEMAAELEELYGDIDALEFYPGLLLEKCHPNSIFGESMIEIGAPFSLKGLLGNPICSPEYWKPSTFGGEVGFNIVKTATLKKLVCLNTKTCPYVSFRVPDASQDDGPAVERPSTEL

Structure (SMILES) | melting point [°C] | inhibition at 0.03 µM (COX-2) [%] | inhibition at 1 µM (COX-1) [%]
CS(=O)(=O)c1ccc(-c2ssc(=S)c2-c2ccc(F)cc2Cl)cc1 [Example 59, 4-(2-chloro-4-fluorophenyl)-5-(4-methanesulfonylphenyl)-[1,2]dithiol-3-thione] | 184 to 185 | 19.7 | 23.2
COc1ccc(-c2c(-c3ccc(S(C)(=O)=O)cc3)ssc2=S)cc1OC [Example 60, 4-(3,4-dimethoxyphenyl)-5-(4-methanesulfonylphenyl)-[1,2]dithiol-3-thione] | 182 to 183 | 19.3 | 26.5
CS(=O)(=O)c1ccc(-c2ssc(=S)c2-c2ccccc2Br)cc1 [Example 61, 4-(2-bromophenyl)-5-(4-methanesulfonylphenyl)-[1,2]dithiol-3-thione] | 179 to 180 | 20.1 | 23.3
CS(=O)(=O)c1ccc(-c2ssc(=S)c2-c2ccccc2F)cc1 [Example 62, 4-(2-fluorophenyl)-5-(4-methanesulfonylphenyl)-[1,2]dithiol-3-thione] | 173 to 174 | 21 | 26.6
CS(=O)(=O)c1ccc(-c2ssc(=S)c2-c2ccc(F)cc2F)cc1 [Example 63, 4-(2,4-difluorophenyl)-5-(4-methanesulfonylphenyl)-[1,2]dithiol-3-thione] | 148 to 149 | 21.3 | 20.3
CS(=O)(=O)c1ccc(-c2ssc(=S)c2-c2ccc(F)c(F)c2)cc1 [Example 64, 4-(3,4-difluorophenyl)-5-(4-methanesulfonylphenyl)-[1,2]dithiol-3-thione] | 193 to 194 | 19.8 | 21.6
CC(C)Oc1ccc(-c2c(-c3ccc(S(C)(=O)=O)cc3)ssc2=S)cc1 [Example 67, 4-(4-isopropoxylphenyl)-5-(4-methanesulfonylphenyl)-[1,2]dithiol-3-thione] | 179 to 180 | 23.3 | 27.5
CCCOc1ccc(-c2c(-c3ccc(S(C)(=O)=O)cc3)ssc2=S)cc1 [Example 68, 5-(4-methanesulfonylphenyl)-4-(4-propoxyphenyl)-[1,2]dithiol-3-thione] | 177 to 178 | 22.7 | 25.5
CC(=O)Oc1ccc(-c2c(-c3ccc(S(C)(=O)=O)cc3)ssc2=S)cc1 [Example 69, Acetic acid 4-[5-(4-methanesulfonylphenyl)-3-thioxo-3H-[1,2]dithiol-4-yl]phenyl ester] | 241 to 243 | 21.3 | 24.8
CCOc1ccc(-c2c(-c3ccc(S(C)(=O)=O)cc3Cl)ssc2=S)cc1 [Example 70, 5-(2-chloro-4-methanesulfonylphenyl)-4-(4-ethoxyphenyl)-[1,2]dithiol-3-thione] | 190 to 191 | 36 | 17.5
CS(=O)(=O)c1ccc(-c2ssc(=S)c2-c2ccc(Br)cc2)c(Cl)c1 [Example 72, 4-(4-bromophenyl)-5-(2-chloro-4-methanesulfonylphenyl)-[1,2]dithiol-3-thione] | 194 to 195 | 19.3 | 28.1
COc1ccc(-c2c(-c3ccc(S(C)(=O)=O)cc3Cl)ssc2=S)cc1 [Example 73, 5-(2-chloro-4-methanesulfonylphenyl)-4-(4-methoxyphenyl)-[1,2]dithiol-3-thione] | 192 to 193 | 20.1 | 25.6
Cc1ccc(-c2c(-c3ccc(F)c(F)c3)ssc2=S)cc1 [Example 74, 5-(3,4-difluorophenyl)-4-p-toryl-[1,2]dithiol-3-thione] | 140 to 142 | 19.2 | 26.5
COc1ccc(-c2c(-c3ccc(F)c(F)c3)ssc2=S)cc1 [Example 75, 5-(3,4-difluorophenyl)-4-(4-methoxyphenyl)-[1,2]dithiol-3-thione] | 143 to 145 | 19.6 | 26.6
CC(=O)Oc1ccc(-c2c(-c3ccc(F)c(F)c3)ssc2=S)cc1 [Example 76, Acetic acid 4-[5-(3,4-difluorophenyl)-3-thioxo-3H-[1,2]dithiol-4-yl]-phenyl ester] | 147 to 149 | 20.3 | 21.6
CC(=O)Oc1ccc(-c2c(-c3ccc(S(C)(=O)=O)c(F)c3)ssc2=S)cc1 [Example 79, Acetic acid 4-[5-(3-fluoro-4-methanesulfonylphenyl)-3-thioxo-3H-[1,2]dithiol-4-yl]-phenyl ester] | 200 to 201 | 30.2 | 19.5
CS(=O)(=O)c1ccc(-c2[nH][nH]c(=S)c2-c2ccc(Cl)c(Cl)c2)cc1 [Example 81, 4-(3,4-dichlorophenyl)-5-(4-methanesulfonylphenyl)-1,2-dihydropyrazole-3-thione] | 192 to 193 | 24.6 | 24.9
CS(=O)(=O)c1ccc(-c2[nH][nH]c(=S)c2-c2ccc(Cl)cc2)cc1 [Example 82, 4-(4-chlorophenyl)-5-(4-methanesulfonylphenyl)-1,2-dihydropyrazole-3-thione] | 211 to 213 | 22.2 | 24.3
